Where a SMILES comes first, the peptide text is derived from it. The star is where a group is joined. Cbz = O=C(OCc1ccccc1)*
Assay: Inhibitory concentration for cytotoxic activity against human ocular melanoma IPC227F cells upon incubation for 48 h at 37 °C; No inhibition; call rule not given here

| SMILES | IC50 |
| --- | --- |
| CCN(CC)CCNC(=O)c1ccc(C(=O)N[C@H](C=O)CC(C)C)cc1 | Not Active |
| CCN(CC)CCNC(=O)c1ccc(C(=O)N[C@@H](CC(C)C)C(=O)N[C@H](C=O)CC(C)C)cc1 | Not Active |

Assay: Inhibitory concentration for cytotoxic activity against human ocular melanoma IPC227F cells upon incubation for 48 h at 37 °C

| SMILES | IC50 [nM] |
| --- | --- |
| CCN(CC)CCNC(=O)c1ccc(C(=O)N[C@@H](CC(C)C)C(=O)N[C@@H](Cc2ccccc2)C(=O)N[C@H](C=O)CC(C)C)cc1 | 2840 |
| CCN(CC)CCNC(=O)c1ccc(C(=O)N[C@@H](Cc2ccccc2)C(=O)N[C@H](C=O)CC(C)C)cc1 | 20900 |
| CCN(CC)CCNC(=O)c1ccc(C(=O)N[C@@H](CC(C)C)C(=O)N[C@@H](CC(C)C)C(=O)N[C@H](C=O)CC(C)C)cc1 | 640 |
| CCN(CC)CCNC(=O)c1ccc(C(=O)N[C@@H](Cc2ccccc2)C(=O)N[C@@H](CC(C)C)C(=O)N[C@H](C=O)CC(C)C)cc1 | 11900 |
| CC(C)C[C@@H](C=O)NC(=O)[C@H](CC(C)C)NC(=O)[C@H](CC(C)C)NC(=O)OCc1ccccc1 [MG-132] (Cbz-Leu-Leu-Leu-aldehyde) | 77 |
